Experimental data taken from patent US9073821B2, “Hydroxamic acid derivative” (priority 2010, dated 2015).
≈ marks a conversion by molar mass, not a printed value. Read-outs that look alike come from different tables or passages of the source.

Tests used:
[1] = target: Pseudomonas aeruginosa LpxC enzyme (Pseudomonas aeruginosa (strain ATCC 15692 / DSM 22644 / CIP 104116 / JCM 14847 / LMG 12228 / 1C / PRS 101 / PAO1), UniProt P47205); experiment: biochemical; type: biochemical
[2] = test system: Pseudomonas aeruginosa strain TS88 (clinical isolate); experiment: Antimicrobial activity, MIC by broth microdilution; type: cell-based; settings: Table 1, 35° C., 18 hours, read-out: MIC Pseudomonas aeruginosa TS88 strain
Excerpt: Test 3: Evaluation of Antimicrobial Activity For minimum inhibitory concentration (MIC) measurement, the following broth microdilution method was applied as adapted from the standard procedure recommended by the CLSI (Clinical and Laboratory Standards Institute). The bacteria used were Pseudomonas aeruginosa strain TS88 (clinical isolate), E. coli strain ATCC25922, and Klebsiella pneumoniae strain ATCC13883. After culture overnight on a heart infusion agar medium, the cells of a test bacterium were scraped off and suspended to give a turbidity of level 0.5 on the McFarland scale; the suspension was then diluted 10 fold to prepare an inoculum solution. A 0.005 mL aliquot of the inoculum solution was inoculated in a cation-adjusted Mueller-Hinton broth medium containing a test compound and cultured at 35° C. for 18 hours. A minimum drug concentration at which no cell growth was visible to the naked eye was designated as MIC.

[3] = Table 1, read-out: Pseudomonas aeruginosa LpxC IC50
[4] = inhibitory activity on Pseudomonas aeruginosa LpxC enzyme, class symbols A/B/C, read-out: Enzyme inhibitory activity

| IC50 [1, 4] [nM] | IC50 ([1]; class symbols A/B/C by IC50, Table 3, read-out: Enzyme inhibitory activity (inhibitory activity on Pseudomonas aeruginosa LpxC enzyme)) [nM] | Compound | IC50 [1, 3] [nM] | MIC [2] [µg/mL] |
| --- | --- | --- | --- | --- |
| – | – | CNc1ccc(-c2ccc(C(=O)N(C)C(C(=O)NO)C(=O)NCc3cc(C)on3)cc2)cc1 (stereo not drawn) [Compound 77, N-hydroxy-2-(methyl {[4′-(methylamino)biphenyl-4-yl]carbonyl}amino)-N′-[(5-methyl-1,2-oxazol-3-yl)methyl]propanediamide] | 7.5 | 4 (≈ 8.86 µM) |
| – | – | CNC(=O)C(C(=O)NO)N(C)C(=O)c1ccc(-c2ccc(COC)cc2)cc1 (stereo not drawn) [Compound 4, N-hydroxy-2-[{[4′-(methoxymethyl)biphenyl-4-yl]carbonyl}(methyl)amino]-N′-methylpropanediamide] | 6.1 | 1 (≈ 2.59 µM) |
| – | – | CNC(=O)C(C(=O)NO)N(C)C(=O)c1ccc(-c2ccc3c(c2)OC(OC)O3)cc1 (stereo not drawn) [Compound 94, N-hydroxy-2-{[4-(2-methoxy-1,3-benzodioxol-5-yl)benzoyl](methyl)amino}-N′-methylpropanediamide] | 5.6 | 2 (≈ 4.81 µM) |
| – | – | Cc1cc(CNC(=O)C(C(=O)NO)N(C)C(=O)c2ccc(-c3ccccc3)cc2)no1 (stereo not drawn) [Compound 172, 2-[(Biphenyl-4-ylcarbonyl)(methyl)amino]-N-hydroxy-N′-[(5-methyl-1,2-oxazol-3-yl)methyl]propanediamide] | 7.1 | 2 (≈ 4.73 µM) |
| – | – | CNC(=O)C(C(=O)NO)N(C)C(=O)c1ccc(-c2ccc(OC(F)(F)F)cc2)cc1 (stereo not drawn) [Compound 52, N-hydroxy-N′-methyl-2-(methyl {[4′-(trifluoromethoxy)biphenyl-4-yl]carbonyl}amino)propanediamide] | 4.6 | 1 (≈ 2.35 µM) |
| – | – | CNC(=O)C(C(=O)NO)N(C)C(=O)c1ccc(-c2ccccc2)c(F)c1 (stereo not drawn) [Compound 61, 2-{[(2-fluorobiphenyl-4-yl)carbonyl](methyl)amino}-N-hydroxy-N′-methylpropanediamide] | 9.2 | 2 (≈ 5.57 µM) |
| – | – | CNC(=O)C(C(=O)NO)N(C)C(=O)c1ccc(-c2ccc(N(C)C)cc2)cc1 (stereo not drawn) [Compound 43, 2-[{[4′-(dimethylamino)biphenyl-4-yl]carbonyl}(methyl)amino]-N-hydroxy-N′-methylpropanediamide] | 7.2 | 1 (≈ 2.6 µM) |
| – | – | CNC(=O)C(C(=O)NO)N(C)C(=O)c1ccc(-c2ccc(NC)cc2)cc1 (stereo not drawn) [Compound 2, N-hydroxy-N′-methyl-2-(methyl {[4′-(methylamino)biphenyl-4-yl]carbonyl}amino)propanediamide] | 7.1 | 0.5 (≈ 1.35 µM) |
| – | – | CNC(=O)C(C(=O)NO)N(C)C(=O)c1ccc(-c2ccc(OCCO)cc2)cc1 (stereo not drawn) [Compound 153, N-hydroxy-2-[{[4′-(2-hydroxyethoxy)biphenyl-4-yl]carbonyl}(methyl)amino]-N′-methylpropanediamide] | 5.7 | 2 (≈ 4.98 µM) |
| – | – | CNC(=O)C(C(=O)NO)N(C)C(=O)c1ccc(-c2ccc(C)cc2)cc1 (stereo not drawn) [Compound 5, N-hydroxy-N′-methyl-2-{methyl[(4′-methylbiphenyl-4-yl)carbonyl]amino}propanediamide] | 3.7 | 0.25 (≈ 0.703 µM) |
| – | – | CNC(=O)C(C(=O)NO)N(C)C(=O)c1ccc(-c2ccc3c(c2)OCC3)cc1 (stereo not drawn) [Compound 271, 2-{[4-(2,3-dihydro-1-benzofuran-6-yl)benzoyl](methyl)amino}-N-hydroxy-N′-methylpropanediamide] | 5 | 0.5 (≈ 1.3 µM) |
| – | – | CNC(=O)C(C(=O)NO)N(C)C(=O)c1ccc(-c2ccc(C(F)(F)F)cc2)cc1 (stereo not drawn) [Compound 56, N-hydroxy-N′-methyl-2-(methyl {[4′-(trifluoromethyl)biphenyl-4-yl]carbonyl}amino)propanediamide] | 6.7 | 1 (≈ 2.44 µM) |
| – | – | CNC(=O)C(C(=O)NO)N(C)C(=O)c1ccc(-c2ccccc2)cc1 (stereo not drawn) [Compound 1, 2-[(Biphenyl-4-ylcarbonyl)(methyl)amino]-N-hydroxy-N′-methylpropanediamide] | 7.7 | 0.5 (≈ 1.46 µM) |
| – | – | CNC(=O)C(C(=O)NO)N(C)C(=O)c1ccc(-c2ccc(CF)cc2)cc1 (stereo not drawn) [Compound 237, 2-[{[4′-(fluoromethyl)biphenyl-4-yl]carbonyl}(methyl)amino]-N-hydroxy-N′-methylpropanediamide] | 4.5 | 0.5 (≈ 1.34 µM) |
| – | – | CNC(=O)C(C(=O)NO)N(C)C(=O)c1ccc(-c2ccc(NCCCCCN3CCOCC3)cc2)cc1 (stereo not drawn) [Compound 58, N-hydroxy-N′-methyl-2-{methyl[(4′-{[5-(morpholin-4-yl)pentyl]amino}biphenyl-4-yl)carbonyl]amino}propanediamide] | 8.3 | 4 (≈ 7.82 µM) |
| – | – | CNC(=O)C(C(=O)NO)N(C)C(=O)c1ccc(-c2ccc(F)cc2)cc1 (stereo not drawn) [Compound 6, 2-{[(4′-fluorobiphenyl-4-yl)carbonyl](methyl)amino}-N-hydroxy-N′-methylpropanediamide] | 7.1 | 1 (≈ 2.78 µM) |
| – | – | CNC(=O)C(C(=O)NO)N(C)C(=O)c1ccc(-c2ccc3c(c2)OCO3)cc1 (stereo not drawn) [Compound 8, 2-{[4-(1,3-benzodioxol-5-yl)benzoyl](methyl)amino}-N-hydroxy-N′-methylpropanediamide] | 5 | 0.5 (≈ 1.3 µM) |
| – | – | CNC(=O)C(C(=O)NO)N(C)C(=O)c1ccc(C#Cc2ccccc2)cc1 (stereo not drawn) [Compound 218, N-hydroxy-N′-methyl-2-{methyl[4-(phenylethynyl)benzoyl]amino}propanediamide] | 7.2 | 1 (≈ 2.74 µM) |
| – | – | CNC(=O)C(C(=O)NO)N(C)C(=O)c1ccc(-c2ccc(OCCCN3CCOCC3)cc2)cc1 (stereo not drawn) [Compound 7, N-hydroxy-N′-methyl-2-[methyl({4′-[3-(morpholin-4-yl)propoxy]biphenyl-4-yl}carbonyl)amino]propanediamide] | – | 2 (≈ 4.13 µM) |
| – | – | CNC(=O)C(C(=O)NO)N(C)C(=O)c1ccc(-c2ccc(OC)cc2)cc1 (stereo not drawn) [Compound 3] | 3.3 | 0.5 (≈ 1.35 µM) |
| – | – | CNC(=O)C(C(=O)NO)N(C)C(=O)c1ccc(-c2ccc3c(c2)CCO3)cc1 (stereo not drawn) [Compound 188, 2-{[4-(2,3-dihydro-1-benzofuran-5-yl)benzoyl](methyl)amino}-N-hydroxy-N′-methylpropanediamide] | 5 | 0.5 (≈ 1.3 µM) |
| – | – | CNC(=O)C(C(=O)NO)N(C)C(=O)c1ccc(-c2ccc(OCCCN3CCOCC3)cc2)cc1.Cc1ccc(S(=O)(=O)O)cc1 (stereo not drawn) [Compound 7b, N-hydroxy-N′-methyl-2-[methyl({4′-[3-(morpholin-4-yl)propoxy]biphenyl-4-yl}carbonyl)amino]propanediamide 4-methylbenzenesulfonate] | – | 2 |
| < 10 | – | CNC(=O)C(C(=O)NO)N(C)C(=O)c1ccc(-c2cc(F)c(NC)cc2F)cc1 (stereo not drawn) [Compound 67, 2-[{[2′,5′-difluoro-4′-(methylamino)biphenyl-4-yl]carbonyl}(methyl)amino]-N-hydroxy-N′-methylpropanediamide] | – | – |
| < 10 | – | CNC(=O)C(C)(C(=O)NO)N(C)C(=O)c1ccc(-c2ccc(C)cc2)cc1 (stereo not drawn) [Compound 349, N-hydroxy-N′,2-dimethyl-2-{methyl[(4′-methylbiphenyl-4-yl)carbonyl]amino}propanediamide] | – | – |
| > 100 | – | CNC(=O)C(NC(=O)c1ccc(OC(F)(F)F)cc1)C(=O)NO (stereo not drawn) [Compound 16, N-hydroxy-N′-methyl-2-{[4-(trifluoromethoxy)benzoyl]amino}propanediamide] | – | – |
| – | < 10 | CCOC1CN(Cc2ccc(C#Cc3ccc(C(=O)N(C)C(C(=O)NC)C(=O)NO)cc3)cc2)C1 (stereo not drawn) [Compound 535, 2-[{[4-({4-[(3-ethoxyazetidin-1-yl)methyl]phenyl}ethynyl)phenyl]carbonyl}(methyl)amino]-N-hydroxy-N′-methylpropanediamide] | – | – |
| 10 to 100 | – | CNC(=O)C(C)(NC(=O)c1ccc(C#Cc2ccc(CN3CCCOCC3)cc2)cc1)C(=O)NO (stereo not drawn) [Compound 380, N-hydroxy-N′,2-dimethyl-2-{[(4-{[4-(1,4-oxazepan-4-ylmethyl)phenyl]ethynyl}phenyl)carbonyl]amino}propanediamide] | – | – |
| – | – | CNC(=O)C(C(=O)NO)N(C)C(=O)c1ccc(-c2ccc3c(c2)CCN3C)cc1 (stereo not drawn) [Compound 40, N-hydroxy-N′-methyl-2-{methyl[4-(1-methyl-2,3-dihydro-1H-indol-5-yl)benzoyl]amino}propanediamide] | 4.7 | 1 (≈ 2.52 µM) |
| < 10 | – | CNC(=O)C(C(=O)NO)N(C)C(=O)c1ccc(-c2ccc(SCCOC)cc2)cc1 (stereo not drawn) [Compound 291, N-hydroxy-2-[({4′-[(2-methoxyethyl)sulfanyl]biphenyl-4-yl}carbonyl)(methyl)amino]-N′-methylpropanediamide] | – | – |
| 10 to 100 | – | CNC(=O)C(C(=O)NO)N(C)C(=O)c1ccc(-c2ccc(OCCCN(C)CCOC)cc2)cc1 (stereo not drawn) [Compound 64, N-hydroxy-2-{[(4′-{3-[(2-methoxyethyl)(methyl)amino]propoxy}biphenyl-4-yl)carbonyl](methyl)amino}-N′-methylpropanediamide] | – | – |
